Reference: ChEMBL document CHEMBL1131916, “Novel series of O-substituted 8-quinolines and 4-benzothiazoles as potent antagonists of the bradykinin B2 receptors” (Bioorg Med Chem Lett, 1999)

Legend:
B2 bradykinin receptor [1] = biological target: T1, B2 bradykinin receptor (Cavia porcellus, UniProt O70526); assay: Inhibition of BK-induced (4x10E-8M) contraction of isolated guinea pig ileum (GPI); type: functional, tissue-based
T1 sequence (O70526 whole entry): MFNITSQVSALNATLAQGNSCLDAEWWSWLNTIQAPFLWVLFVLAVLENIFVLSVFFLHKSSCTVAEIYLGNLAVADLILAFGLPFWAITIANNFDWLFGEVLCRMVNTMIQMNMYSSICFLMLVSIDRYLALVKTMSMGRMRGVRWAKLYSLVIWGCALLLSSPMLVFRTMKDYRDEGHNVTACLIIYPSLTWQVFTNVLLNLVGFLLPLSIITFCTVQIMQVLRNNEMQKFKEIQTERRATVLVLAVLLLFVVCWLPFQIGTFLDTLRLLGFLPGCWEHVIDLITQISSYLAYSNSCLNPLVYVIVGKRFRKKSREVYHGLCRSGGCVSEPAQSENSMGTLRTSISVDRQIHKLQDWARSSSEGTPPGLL

B2 bradykinin receptor [2] = biological target: T1, B2 bradykinin receptor; assay: Inhibition of specific binding of [3H]BK to bradykinin B2 receptors of guinea pig ileum (GPI); type: tissue-based
[3] = test system: B2 bradykinin receptor, Oryctolagus cuniculus; assay: % Inhibition of BK-induced (4x10E-8M) contraction of rabbit jugular vein (RJV) at 10E-5 M concentration
Oryctolagus cuniculus [4] = organism: Oryctolagus cuniculus; assay: Compound was tested for the efficacy in the inhibition of BK-induced (4x10E-8M) contraction of rabbit jugular vein (RJV); type: functional
Oryctolagus cuniculus [5] = organism: Oryctolagus cuniculus; assay: Compound was tested for the percent inhibition of BK-induced (4x10E-8M) contraction of rabbit jugular vein (RJV) at 10E-6 M concentration; type: functional

Compound Cc1ccc(/C=C/C(=O)NCC(=O)N(C)c2ccc(Cl)c(COc3cccc4sc(-c5ccccc5)nc34)c2Cl)cc1 has an EC50 (B2 bradykinin receptor [1]) of 20000 nM, an IC50 (B2 bradykinin receptor [2]) of 11000 nM and a Ki (B2 bradykinin receptor [2]) of 1300 nM. For the same compound, the inhibition [3] was 15%.

Work on Cc1nc2c(OCc3c(Cl)ccc(N(C)C(=O)CNC(=O)/C=C/c4ccc(C(F)(F)F)cc4)c3Cl)cccc2s1 yielded an EC50 (Oryctolagus cuniculus [4]) of 76 nM, an EC50 (B2 bradykinin receptor [1]) of 100 nM and an IC50 (B2 bradykinin receptor [2]) of 23 nM. The Ki (B2 bradykinin receptor [2]) was 2.8 nM.

Work on CCNC(=O)NCC(=O)N(C)c1ccc(OC)c(COc2cccc3ccc(C)nc23)c1C#N yielded an EC50 (B2 bradykinin receptor [1]) of 450 nM, an IC50 (B2 bradykinin receptor [2]) of 53.8 nM and an inhibition [3] of 59%.

Work on Cc1nc2c(OCc3c(Cl)ccc(N(C)C(=O)CNC(=O)OCc4ccccc4)c3Cl)cccc2s1 yielded an IC50 (B2 bradykinin receptor [2]) of 77.8 nM and a Ki (B2 bradykinin receptor [2]) of 9.1 nM.

COc1c(N(C)C(=O)CNC(=O)/C=C/c2ccc(C(F)(F)F)cc2)ccc(Cl)c1COc1cccc2ccc(C)nc12 was tested, and the EC50 (Oryctolagus cuniculus [4]) was 28 nM, the EC50 (B2 bradykinin receptor [1]) was 55 nM and the IC50 (B2 bradykinin receptor [2]) was 21.9 nM. For the same compound, the Ki (B2 bradykinin receptor [2]) was 2.5 nM.

CCCOc1c(N(C)C(=O)CNC(=O)/C=C/c2ccc(C(F)(F)F)cc2)ccc(OC)c1COc1cccc2ccc(C)nc12 was tested, and the EC50 (B2 bradykinin receptor [1]) was 220 nM, the IC50 (B2 bradykinin receptor [2]) was 32.9 nM and the Ki (B2 bradykinin receptor [2]) was 3.9 nM. It also gave an inhibition [3] of 82%.

Cc1ccc2cccc(OCc3c(Cl)ccc(N(C)C(=O)CNC(=O)NCCCCN)c3C#N)c2n1 gave an EC50 (B2 bradykinin receptor [1]) of 350 nM and an IC50 (B2 bradykinin receptor [2]) of 0.9 nM.

Work on C=C/C=C/C(=O)NCC(=O)N(C)c1ccc(Cl)c(COc2cccc3sc(C)nc23)c1Cl yielded an EC50 (Oryctolagus cuniculus [4]) of 5200 nM, an EC50 (B2 bradykinin receptor [1]) of 260 nM and an IC50 (B2 bradykinin receptor [2]) of 26.2 nM. For the same compound, the Ki (B2 bradykinin receptor [2]) was 3.1 nM.

COc1ccc(N(C)C(=O)CNC(=O)/C=C/c2cccc(C)c2)c(OC)c1COc1cccc2ccc(C)nc12 showed an IC50 (B2 bradykinin receptor [2]) of 81.3 nM, a Ki (B2 bradykinin receptor [2]) of 9.2 nM and an inhibition [3] of 68%.

Cc1ccc(/C=C/C(=O)NCC(=O)N(C)c2ccc(Cl)c(COc3cccc4scnc34)c2Cl)cc1 was tested, and the EC50 (B2 bradykinin receptor [1]) was 1300 nM, the IC50 (B2 bradykinin receptor [2]) was 1350 nM and the Ki (B2 bradykinin receptor [2]) was 160 nM. The inhibition [3] was 17%.

In the case of COc1ccc(N(C)C(=O)CNC(=O)/C=C/c2ccc(C(F)(F)F)cc2)c(Cl)c1COc1cccc2ccc(C)nc12, the EC50 (Oryctolagus cuniculus [4]) is reported as 260 nM, the EC50 (B2 bradykinin receptor [1]) is reported as 130 nM and the IC50 (B2 bradykinin receptor [2]) is reported as 11.5 nM. It also gave a Ki (B2 bradykinin receptor [2]) of 1.3 nM.

Cc1ccc2cccc(OCc3c(Cl)ccc(N(C)C(=O)CNC(=O)NCCCC(=O)O)c3C#N)c2n1 showed an EC50 (B2 bradykinin receptor [1]) of 400 nM, an IC50 (B2 bradykinin receptor [2]) of 25.7 nM and a Ki (B2 bradykinin receptor [2]) of 2.9 nM.

With Cc1ccc2cccc(OCc3c(Cl)ccc(N(C)C(=O)CNC(=O)/C=C/c4ccc(C(F)(F)F)cc4)c3C#N)c2n1 the EC50 (B2 bradykinin receptor [1]) was 56 nM, the IC50 (B2 bradykinin receptor [2]) was 1.2 nM and the Ki (B2 bradykinin receptor [2]) was 0.3 nM. The inhibition [3] was 82%.

Compound COc1cccc(/C=C/C(=O)NCC(=O)N(C)c2ccc(Cl)c(COc3cccc4sc(C)nc34)c2Cl)c1 has an EC50 (Oryctolagus cuniculus [4]) of 180 nM, an EC50 (B2 bradykinin receptor [1]) of 54 nM and an IC50 (B2 bradykinin receptor [2]) of 10.3 nM. It also gave a Ki (B2 bradykinin receptor [2]) of 1.3 nM.

For Cc1ccc2cccc(OCc3c(C)ccc(N(C)C(=O)CNC(=O)/C=C/c4ccc(C(F)(F)F)cc4)c3C)c2n1, the IC50 (B2 bradykinin receptor [2]) was 11.8 nM, the Ki (B2 bradykinin receptor [2]) was 1.3 nM and the inhibition [3] was 81%.

For Cc1ccc(/C=C/C(=O)NCC(=O)N(C)c2ccc(Cl)c(COc3cccc4sc(C)nc34)c2Cl)cc1, the EC50 (Oryctolagus cuniculus [4]) was 66 nM, the EC50 (B2 bradykinin receptor [1]) was 23 nM and the IC50 (B2 bradykinin receptor [2]) was 14.2 nM. It also gave a Ki (B2 bradykinin receptor [2]) of 1.8 nM.

COc1ccc(/C=C/C(=O)NCC(=O)N(C)c2ccc(SC)c(COc3cccc4ccc(C)nc34)c2SC)cc1 showed an EC50 (Oryctolagus cuniculus [4]) of 8700 nM, an EC50 (B2 bradykinin receptor [1]) of 660 nM and an IC50 (B2 bradykinin receptor [2]) of 56.9 nM. For the same compound, the Ki (B2 bradykinin receptor [2]) was 6.3 nM.

In the case of COc1ccc(N(C)C(=O)CNC(=O)/C=C/c2ccc(NC(C)=O)nc2)c(SC)c1COc1cccc2ccc(C)nc12, the EC50 (B2 bradykinin receptor [1]) is reported as 59 nM, the IC50 (B2 bradykinin receptor [2]) is reported as 5.2 nM and the Ki (B2 bradykinin receptor [2]) is reported as 0.6 nM. For the same compound, the inhibition [3] was 95%.

COC(=O)CCCCC(=O)NCC(=O)N(C)c1ccc(OC)c(COc2cccc3ccc(C)nc23)c1SC gave an EC50 (B2 bradykinin receptor [1]) of 480 nM, an IC50 (B2 bradykinin receptor [2]) of 47.2 nM and an inhibition [3] of 55%.

COc1c(N(C)C(=O)CNC(=O)/C=C/c2ccc(C(F)(F)F)cc2)ccc(SC)c1COc1cccc2ccc(C)nc12 gave an Inhibition (Oryctolagus cuniculus [5]) of 41%, an EC50 (B2 bradykinin receptor [1]) of 1100 nM and an IC50 (B2 bradykinin receptor [2]) of 393 nM. For the same compound, the Ki (B2 bradykinin receptor [2]) was 45.4 nM.

Compound COc1cccc(/C=C/C(=O)NCC(=O)N(C)c2ccc(Cl)c(COc3cccc4ccc(C)nc34)c2C#N)c1 has an EC50 (B2 bradykinin receptor [1]) of 4.1 nM, an IC50 (B2 bradykinin receptor [2]) of 0.7 nM and a Ki (B2 bradykinin receptor [2]) of 0.1 nM. The inhibition [3] was 78%.

With CCNC(=O)NCC(=O)N(C)c1ccc(Cl)c(COc2cccc3ccc(C)nc23)c1C#N the EC50 (B2 bradykinin receptor [1]) was 290 nM and the IC50 (B2 bradykinin receptor [2]) was 64.8 nM.

Cc1nc2c(OCc3c(Cl)ccc(N(C)C(=O)CNC(=O)/C=C/c4ccco4)c3Cl)cccc2s1 was tested, and the IC50 (B2 bradykinin receptor [2]) was 29.8 nM and the Ki (B2 bradykinin receptor [2]) was 3.4 nM.
